Consider 1 compound from patent US20210137964A1, “GLYCAN COMPOSITIONS AND METHODS OF USE” (KALEIDO BIOSCIENCES, INC., priority 2016, published 2021).

SMILES strings stand for the structures.

Common to all, as to assay type: cell-based
Common to all, as to details: ex vivo 1% w/v fecal slurry from 12 subjects, glycan 0.5% w/v, 37° C., 18 hours, anaerobic

The subject of experiment [1] is Enterobacteriaceae/Escherichia/Shigella microbes. Put plainly: Ex vivo fecal slurry assay, 16S rRNA sequencing (Example 17). An excerpt: (§1) An ex vivo assay was designed to determine if glycans can be used to modulate a complex community of microorganisms and if the glycans produced consistent effects across communities obtained from multiple (twelve) subjects. Fecal samples and slurries were handled in an anaerobic chamber (AS-580, Anaerobe Systems) featuring a palladium catalyst. Glycans ara100, gal100, glu60man40, glu100, glu50gal50, gal33man33ara33, man75gal25, glu33gal33man34, glu33gal33Ara33, man100, man52glu29gal19 and commercially available glycans lactulose (Alfa Aesar) and FOS (Nutraflora FOS; NOW Foods, Bloomingdale Ill.) were included in the study. The fecal sample donations obtained from 12 subjects were stored at −80° C. To prepare working stocks the fecal samples were transferred into the anaerobic chamber and allowed to thaw.

The subject of experiment [2] is Firmicutes, Proteobacteria, and/or Actinobacteria. Put plainly: Ex vivo fecal slurry assay, 16S rRNA sequencing (Example 11).
From the text: as §1

Experiment [3] has as its system Ruminococcaceae/Ruminococcus microbes. Kind of experiment: Ex vivo fecal slurry assay, 16S rRNA sequencing (Example 21).
From the text: as §1

The subject of experiment [4] is Enterococcaceae/Enterococcus and/or Enterobacteriaceae/Escherichia/Shigella microbes. Put plainly: Ex vivo fecal slurry assay, 16S rRNA sequencing (Example 18).
From the text: as §1

In experiment [5] the test system is Enterobacteriales/Enterobacteriaceae microbes. Put plainly: Ex vivo fecal slurry assay, 16S rRNA sequencing (Example 19).
From the text: as §1

Experiment [6] deals with Actinobacteria and/or Coriobacteriaceae/Gordonibacter. Kind of experiment: Ex vivo fecal slurry assay, 16S rRNA sequencing (Example 13).
From the text: as §1

Experiment [7] deals with Enterococcaceae/Enterococcus and/or Bifidobacteriaceae/Bifidobacterium. Kind of experiment: Ex vivo fecal slurry assay, 16S rRNA sequencing (Example 15).
From the text: as §1

As for `OC[C@H]1O[C@@H](O[C@@H]2[C@@H](CO)OC(O)(CO)[C@H]2O)[C@H](O)[C@@H](O)[C@H]1O` (mixture of isomers) [lactulose], the “levels of Enterobacteriaceae/Escherichia/Shigella microbes” value in experiment [1] is listed as “decrease”. The “levels of Firmicutes, Proteobacteria, and/or Actinobacteria” value in experiment [2] is “decrease”. Also, the “levels of Ruminococcaceae/Ruminococcus microbes” value in experiment [3] is given as “decrease”. The “levels of Enterococcaceae/Enterococcus and/or Enterobacteriaceae/Escherichia/Shigella microbes” value in experiment [4] is listed as “decrease”. In experiment [5], the “levels of Enterobacteriales/Enterobacteriaceae microbes” value is recorded as “decrease”. Moreover, the “levels of Actinobacteria and/or Coriobacteriaceae/Gordonibacter” value in experiment [6] was “decrease”. Also, in experiment [7], the “levels Enterococcaceae/Enterococcus and/or Bifidobacteriaceae/Bifidobacterium” value was “increase”.
